Earlier results as cited in patent US10557153B2, “Degradation of lignocellulosic material” (DSM IP ASSETS B.V., priority 2008, dated 2020).

How the values were obtained:
Settings in all cases: S (Cellobiose) 2.5 g/L
[1] = test system: Talaromyces beta-glucosidase
[2] = test system: Trichoderma beta-glucosidase
[3] = test system: A. niger beta-glucosidase
[4] = test system: A. oryzae beta-glucosidase

OC[C@H]1O[C@@H](O[C@H]2[C@H](O)[C@@H](O)C(O)O[C@@H]2CO)[C@H](O)[C@@H](O)[C@@H]1O (stereo partly shown) [cellobiose]
Vmax (cellobiose) [1]: 1080 gr/gr protein/hr
Vmax (cellobiose) [2]: 470 gr/gr protein/hr
Vmax (cellobiose) [3]: 400 gr/gr protein/hr
Vmax (cellobiose) [4]: 10131 gr/gr protein/hr
